According to the NIST ThermoML archive (doi:10.1021/je050169y):
± gives the expanded uncertainty stated by the source.

Legend:
[1] = 101 kPa, Liquid
[2] = xn = mol fraction of the nth substance listed; conditions: 101 kPa, Liquid

CCCCO [butan-1-ol]
[1]
Conditions	mass density [kg/m3]	speed of sound [m/s]	viscosity [mPa·s]
303.15 K	802.31 ± 0.86	1227 ± 4	2.274 ± 0.054
313.15 K	794.37 ± 0.89	1193 ± 3	1.783 ± 0.043

CCCCO [butan-1-ol] + ClC(Cl)Cl
[2], x2 = 0
Conditions	mass density [kg/m3]	speed of sound [m/s]	viscosity [mPa·s]
303.15 K	802.31 ± 0.86	1227 ± 4	2.274 ± 0.054
313.15 K	794.37 ± 0.89	1193 ± 3	1.783 ± 0.043

CCCO [propan-1-ol]
[1]
Conditions	mass density [kg/m3]	speed of sound [m/s]	viscosity [mPa·s]
303.15 K	796.66 ± 0.8	1193 ± 3	1.719 ± 0.041
313.15 K	788.31 ± 0.83	1159 ± 3	1.363 ± 0.033

CCCO [propan-1-ol] + ClC(Cl)Cl
[2], x2 = 0
Conditions	mass density [kg/m3]	speed of sound [m/s]	viscosity [mPa·s]
303.15 K	796.66 ± 0.8	1193 ± 3	1.719 ± 0.041
313.15 K	788.31 ± 0.83	1159 ± 3	1.363 ± 0.033

ClC(Cl)Cl [trichloromethane]
[1]
Conditions	mass density [kg/m3]	speed of sound [m/s]	viscosity [mPa·s]
303.15 K	1469.21 ± 1.9	969 ± 3	0.534 ± 0.015
313.15 K	1449.74 ± 1.9	934 ± 3	0.491 ± 0.014

ClC(Cl)Cl [trichloromethane] + CCCCO
[2]
Conditions	mass density, 303.15 K [kg/m3]	mass density, 313.15 K [kg/m3]	speed of sound, 303.15 K [m/s]	speed of sound, 313.15 K [m/s]	viscosity, 303.15 K [mPa·s]	viscosity, 313.15 K [mPa·s]
x1 = 0.0512	–	823.95 ± 0.93	–	1172 ± 3	–	1.67 ± 0.041
x1 = 0.0513	832.44 ± 0.91	–	1207 ± 4	–	2.125 ± 0.051	–
x1 = 0.0999	861.44 ± 0.95	–	1189 ± 3	–	1.989 ± 0.048	–
x1 = 0.1	–	852.45 ± 0.97	–	1154 ± 3	–	1.566 ± 0.039
x1 = 0.149	890.91 ± 1	881.47 ± 1	1170 ± 3	1135 ± 3	1.829 ± 0.044	1.45 ± 0.036
x1 = 0.2009	922.47 ± 1.1	912.53 ± 1.1	1152 ± 3	1116 ± 3	1.683 ± 0.041	1.341 ± 0.033
x1 = 0.2506	953.06 ± 1.1	942.58 ± 1.1	1134 ± 3	1098 ± 3	1.531 ± 0.037	1.23 ± 0.031
x1 = 0.2999	983.75 ± 1.1	972.85 ± 1.2	1118 ± 3	1081 ± 3	1.394 ± 0.034	1.136 ± 0.029
x1 = 0.3659	1025.5 ± 1.2	1013.85 ± 1.2	1097 ± 3	1060 ± 3	1.224 ± 0.03	1.018 ± 0.026
x1 = 0.407	1051.86 ± 1.3	1039.75 ± 1.3	1084 ± 3	1047 ± 3	1.137 ± 0.028	0.943 ± 0.024
x1 = 0.4515	1080.69 ± 1.3	1067.95 ± 1.3	1071 ± 3	1034 ± 3	1.045 ± 0.026	0.878 ± 0.023
x1 = 0.4997	1112.25 ± 1.4	1099 ± 1.4	1056 ± 3	1019 ± 3	0.96 ± 0.024	0.82 ± 0.021
x1 = 0.5502	1145.88 ± 1.4	1132.03 ± 1.4	1043 ± 3	1006 ± 3	0.877 ± 0.023	0.758 ± 0.02
x1 = 0.6011	1180.26 ± 1.5	–	1030 ± 3	–	0.82 ± 0.021	–
x1 = 0.6012	–	1165.78 ± 1.5	–	993 ± 3	–	0.712 ± 0.019
x1 = 0.6527	1215.51 ± 1.5	1200.35 ± 1.5	1018 ± 3	981 ± 3	0.754 ± 0.02	0.671 ± 0.018
x1 = 0.702	1249.87 ± 1.6	–	1007 ± 3	–	0.709 ± 0.019	–
x1 = 0.7021	–	1234 ± 1.6	–	970 ± 3	–	0.633 ± 0.017
x1 = 0.7519	1285.1 ± 1.6	1268.52 ± 1.6	997 ± 3	961 ± 3	0.676 ± 0.018	0.615 ± 0.017
x1 = 0.802	1320.98 ± 1.7	–	989 ± 3	–	0.636 ± 0.017	–
x1 = 0.8021	–	1303.85 ± 1.7	–	952 ± 3	–	0.579 ± 0.016
x1 = 0.8517	1357.17 ± 1.7	–	981 ± 3	–	0.622 ± 0.017	–
x1 = 0.8518	–	1339.4 ± 1.7	–	945 ± 3	–	0.572 ± 0.016
x1 = 0.9023	1394.7 ± 1.8	–	975 ± 3	–	0.587 ± 0.016	–
x1 = 0.9024	–	1376.18 ± 1.8	–	939 ± 3	–	0.547 ± 0.015
x1 = 0.9509	1431.43 ± 1.8	–	971 ± 3	–	0.569 ± 0.016	–
x1 = 0.951	–	1412.42 ± 1.8	–	936 ± 3	–	0.524 ± 0.015
x1 = 1	1469.21 ± 1.9	1449.74 ± 1.9	969 ± 3	934 ± 3	0.534 ± 0.015	0.491 ± 0.014
